Assay results from patent publication US8309546B2, “Morpholinopurine derivatives” (Daiichi Sankyo Company, Limited, priority 2008, dated 2012).
Several values for one entry are separate records, joined by “and”; a condition that tells them apart may be missing. Equal entries are not always repeated.

Tests used:
PI3Kα = PI3Kα (Homo sapiens, UniProt P42336); assay: PI3K kinase activity inhibition assay; assay type: biochemical; conditions: Kinase-Glo Plus ATP detection, read-out: IC50 against PI3K
Sequence of PI3Kα (P42336 whole entry, species assumed): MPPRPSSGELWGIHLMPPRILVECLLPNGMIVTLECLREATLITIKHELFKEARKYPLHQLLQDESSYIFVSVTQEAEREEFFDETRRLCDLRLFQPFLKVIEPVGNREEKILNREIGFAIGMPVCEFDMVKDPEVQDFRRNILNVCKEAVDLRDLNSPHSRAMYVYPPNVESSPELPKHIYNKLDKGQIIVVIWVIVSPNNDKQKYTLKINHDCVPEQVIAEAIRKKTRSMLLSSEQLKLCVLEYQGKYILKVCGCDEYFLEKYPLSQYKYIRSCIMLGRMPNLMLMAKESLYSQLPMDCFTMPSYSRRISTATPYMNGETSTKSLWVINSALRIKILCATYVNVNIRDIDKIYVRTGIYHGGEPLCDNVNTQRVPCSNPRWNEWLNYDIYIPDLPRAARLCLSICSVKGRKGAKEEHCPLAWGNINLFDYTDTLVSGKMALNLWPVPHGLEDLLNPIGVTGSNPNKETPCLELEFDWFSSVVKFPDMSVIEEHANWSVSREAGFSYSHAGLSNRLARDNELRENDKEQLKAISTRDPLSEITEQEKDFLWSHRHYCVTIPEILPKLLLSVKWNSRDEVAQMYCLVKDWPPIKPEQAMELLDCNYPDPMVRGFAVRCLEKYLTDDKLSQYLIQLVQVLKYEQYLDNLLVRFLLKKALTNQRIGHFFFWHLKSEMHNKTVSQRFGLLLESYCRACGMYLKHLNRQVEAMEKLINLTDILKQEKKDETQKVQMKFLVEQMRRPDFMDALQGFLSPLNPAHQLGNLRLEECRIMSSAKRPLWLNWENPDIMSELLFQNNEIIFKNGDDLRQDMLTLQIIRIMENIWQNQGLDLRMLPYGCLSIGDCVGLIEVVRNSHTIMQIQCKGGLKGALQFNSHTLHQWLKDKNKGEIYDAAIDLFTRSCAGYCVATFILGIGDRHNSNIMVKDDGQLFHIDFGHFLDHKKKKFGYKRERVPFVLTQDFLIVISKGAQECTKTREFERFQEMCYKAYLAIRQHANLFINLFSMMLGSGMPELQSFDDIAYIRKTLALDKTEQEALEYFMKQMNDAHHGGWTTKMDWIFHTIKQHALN
Sequence of PI3Kα (P27986 whole entry partner, species assumed): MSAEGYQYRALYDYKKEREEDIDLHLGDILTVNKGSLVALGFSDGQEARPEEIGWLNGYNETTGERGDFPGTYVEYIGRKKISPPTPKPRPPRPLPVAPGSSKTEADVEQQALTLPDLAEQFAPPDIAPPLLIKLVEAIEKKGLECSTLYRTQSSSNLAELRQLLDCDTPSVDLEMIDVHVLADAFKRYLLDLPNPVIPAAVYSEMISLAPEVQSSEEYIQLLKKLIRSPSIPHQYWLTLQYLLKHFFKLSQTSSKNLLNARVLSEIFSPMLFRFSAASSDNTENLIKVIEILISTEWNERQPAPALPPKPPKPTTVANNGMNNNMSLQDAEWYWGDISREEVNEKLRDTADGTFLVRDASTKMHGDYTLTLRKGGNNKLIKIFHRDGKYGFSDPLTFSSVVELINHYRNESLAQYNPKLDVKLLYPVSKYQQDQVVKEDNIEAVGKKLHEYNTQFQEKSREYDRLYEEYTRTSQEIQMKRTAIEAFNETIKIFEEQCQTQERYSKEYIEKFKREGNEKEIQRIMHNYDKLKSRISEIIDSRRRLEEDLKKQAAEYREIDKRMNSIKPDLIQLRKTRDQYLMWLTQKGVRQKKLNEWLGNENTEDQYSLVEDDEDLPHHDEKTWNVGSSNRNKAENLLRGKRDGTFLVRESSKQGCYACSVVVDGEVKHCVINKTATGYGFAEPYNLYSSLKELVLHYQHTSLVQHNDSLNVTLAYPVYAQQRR
How it was run: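 PI3Kα (50 nM solution) was reacted with 30 μM ATP and 45 μM PIP2 solutions, each in HEPES pH 7.4 with MgCl2 and DTT, for 2 h at room temperature. Remaining ATP was measured by Kinase-Glo Plus luminescence, and inhibition was derived from ATP consumed. IC50 was taken from curve fitting of the serial dilutions.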

[1] = biological target: T1, human mTOR (His-tagged mTOR (1362C)) (Homo sapiens, UniProt P42345); assay: mTOR kinase activity inhibition assay; assay type: biochemical; conditions: HTRF, read-out: IC50 against mTOR
T1 construct: the 1362 to 2549 amino acid portion on the C terminus side of human mTOR; His tag (N); made in house
T1 sequence (P42345 1362-2549): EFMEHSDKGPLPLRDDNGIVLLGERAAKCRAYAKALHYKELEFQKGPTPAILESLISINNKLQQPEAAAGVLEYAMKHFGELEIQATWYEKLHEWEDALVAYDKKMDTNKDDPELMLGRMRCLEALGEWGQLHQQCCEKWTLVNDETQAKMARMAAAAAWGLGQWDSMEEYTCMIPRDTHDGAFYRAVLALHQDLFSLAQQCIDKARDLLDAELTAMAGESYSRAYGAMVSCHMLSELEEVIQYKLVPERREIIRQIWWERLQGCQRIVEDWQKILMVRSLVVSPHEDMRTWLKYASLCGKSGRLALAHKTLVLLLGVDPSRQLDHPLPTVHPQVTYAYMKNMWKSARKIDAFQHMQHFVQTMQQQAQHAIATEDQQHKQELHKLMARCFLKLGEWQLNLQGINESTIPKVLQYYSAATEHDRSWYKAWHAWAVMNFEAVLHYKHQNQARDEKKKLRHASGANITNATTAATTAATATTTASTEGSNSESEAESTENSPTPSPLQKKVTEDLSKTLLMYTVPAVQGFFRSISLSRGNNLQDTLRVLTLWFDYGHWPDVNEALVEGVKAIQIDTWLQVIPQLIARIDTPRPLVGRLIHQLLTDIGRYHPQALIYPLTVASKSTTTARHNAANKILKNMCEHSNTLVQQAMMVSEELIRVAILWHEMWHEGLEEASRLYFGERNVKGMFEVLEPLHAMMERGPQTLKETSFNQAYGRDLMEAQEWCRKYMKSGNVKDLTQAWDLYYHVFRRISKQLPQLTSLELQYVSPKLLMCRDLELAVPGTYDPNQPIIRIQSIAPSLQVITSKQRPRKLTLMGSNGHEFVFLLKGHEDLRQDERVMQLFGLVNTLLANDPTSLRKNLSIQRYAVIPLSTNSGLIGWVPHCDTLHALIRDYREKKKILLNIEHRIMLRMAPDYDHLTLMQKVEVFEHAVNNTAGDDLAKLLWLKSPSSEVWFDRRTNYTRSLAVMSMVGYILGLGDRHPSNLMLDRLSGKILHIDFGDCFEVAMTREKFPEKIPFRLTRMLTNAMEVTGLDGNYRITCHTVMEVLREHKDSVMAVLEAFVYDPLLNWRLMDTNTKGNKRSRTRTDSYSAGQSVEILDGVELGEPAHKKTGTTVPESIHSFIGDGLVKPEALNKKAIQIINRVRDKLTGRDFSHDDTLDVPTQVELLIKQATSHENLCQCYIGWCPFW
How it was run: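 Crude His-tagged mTOR (aa 1362–2549) from stable HEK293 cells, with 8 μg/ml biotinylated peptide in 50 mM HEPES pH 7.5, 20 mM MnCl2; compound diluted in 20 μM ATP solution, reaction 3 h at room temperature. Phospho-peptide detected by HTRF (anti-phospho-S6K Thr389 cryptate/streptavidin-XL665, overnight at 4°C), 665/620 nm ratio. IC50 derived from curve fit of % inhibition.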

[2] = test system: human endometrial cancer cell strain AN3CA; assay: Cell growth inhibition test (MTT), AN3CA; assay type: cell-based; conditions: AN3-CA, 72 h, 3 days culture, read-out: concentration exhibiting anti-cell effect (GI50)
How it was run: (§1)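 MTT read-out at 540 nm after 4 h formazan formation gives living cell count following 3-day compound exposure at 37° C, 5% CO2. Seeding: 5000 AN3CA, 1000 IGROV1, 5000 HT29 cells/well. Growth rate T/C % = 100×[(B−C)/(A−C)], with C taken before dosing; GI50 = concentration giving 50% growth.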

[3] = test system: human ovary cancer cell strain IGROV1; assay: Cell growth inhibition test (MTT), IGROV1; assay type: cell-based; conditions: IGROV-1, 72 h, IGROV1, 3 days culture, read-out: concentration exhibiting anti-cell effect (GI50)
How it was run: as §1

[4] = test system: human colon cancer cell strain HT29; assay: Cell growth inhibition test (MTT), HT29; assay type: cell-based; conditions: HT-29, 72 h, HT29, 3 days culture, read-out: concentration exhibiting anti-cell effect (GI50)
How it was run: as §1

Structure (SMILES) | IC50 (PI3Kα) | IC50 [1] [nM] | GI50 [2] [nM] | GI50 [3] [nM] | GI50 [4] [nM]
CC(C)Cn1c(N2CCCN(S(C)(=O)=O)CC2)nc2c(N3CCOCC3)nc(-c3cnc(N)nc3)nc21 [Example 49, 5-{9-Isobutyl-8-[4-(methylsulfonyl)-1,4-diazepan-1-yl]-6-morpholin-4-yl-9H-purin-2-yl}pyrimidin-2-amine] | < 10 nM | 10 to 30 | ≤ 5000 | ≤ 5000 | ≤ 5000
Cc1nc(N)ncc1-c1nc(N2CCOCC2)c2nc(N3CCC(N(C)C)C3)n(CC3CC3)c2n1 (stereo not drawn) [Example 33, 5-{9-(Cyclopropylmethyl)-8-[3-(dimethylamino)pyrrolidin-1-yl]-6-morpholin-4-yl-9H-purin-2-yl}-4-methylpyrimidin-2-amine] | 20 to 50 nM | ≥ 500 | ≤ 5000 | ≤ 5000 | ≤ 5000
Nc1ncc(-c2nc(N3CCOCC3)c3nc(N4CCN(C(=O)Cn5ccnc5)CC4)n(CC4CC4)c3n2)cn1 [Example 56, 5-{9-(Cyclopropylmethyl)-8-[4-(1H-imidazol-1-ylacetyl)piperazin-1-yl]-6-morpholin-4-yl-9H-purin-2-yl}pyrimidin-2-amine] | < 10 nM | 10 to 30 | ≤ 5000 | ≤ 5000 | ≤ 5000
CS(=O)(=O)N1CCN(c2nc3c(N4CCOCC4)nc(-c4cnc(N)nc4C(F)(F)F)nc3n2CC2CC2)CC1 [Example 7, 5-{9-(Cyclopropylmethyl)-8-[4-(methylsulfonyl)piperazin-1-yl]-6-morpholin-4-yl-9H-purin-2-yl}-4-(trifluoromethyl)pyrimidin-2-amine] | < 10 nM | 100 to 500 | ≤ 5000 | ≤ 5000 | ≤ 5000
C[C@@H]1CN(c2nc3c(N4CCOCC4)nc(-c4cnc(N)nc4)nc3n2CC(F)(F)F)C[C@H](C)N1C(=O)CO [Example 120] | < 10 nM | < 10 | ≤ 5000 | ≤ 5000 | ≤ 5000
Cc1nc(N)ncc1-c1nc(N2CCOCC2)c2nc(N3CCC(C(N)=O)CC3)n(CC3CC3)c2n1 [Example 36, 1-[2-(2-Amino-4-methylpyrimidin-5-yl)-9-(cyclopropylmethyl)-6-morpholin-4-yl-9H-purin-8-yl]piperidine-4-carboxamide] | < 10 nM | 100 to 500 | ≤ 5000 | ≤ 5000 | ≤ 5000
Nc1ncc(-c2nc(N3CCOCC3)c3nc(N4CCC(S(=O)(=O)c5ccccc5)C4)n(CC4CC4)c3n2)cn1 (stereo not drawn) [Example 31, 5-{9-(Cyclopropylmethyl)-6-morpholin-4-yl-8-[3-(phenylsulfonyl)pyrrolidin-1-yl]-9H-purin-2-yl}pyrimidin-2-amine] | < 10 nM | 30 to 100 | ≤ 5000 | ≤ 5000 | ≤ 5000
CNc1ncc(-c2nc(N3CCOCC3)c3nc(N4CCN(S(C)(=O)=O)CC4)n(CC4CC4)c3n2)cn1 [Example 4, 5-{9-(Cyclopropylmethyl)-8-[4-(methylsulfonyl)piperazin-1-yl]-6-morpholin-4-yl-9H-purin-2-yl}-N-methylpyrimidin-2-amine] | 10 to 20 nM | 30 to 100 | ≤ 5000 | ≤ 5000 | ≤ 5000
Cc1nc(N)ncc1-c1nc(N2CCOCC2)c2nc(N3CC[C@@H](NS(C)(=O)=O)C3)n(CC3CC3)c2n1 [Example 72, N-{(3R)-1-[2-(2-Amino-4-methylpyrimidin-5-yl)-9-(cyclopropylmethyl)-6-morpholin-4-yl-9H-purin-8-yl]pyrrolidin-3-yl}methanesulfonamide] | < 10 nM | ≥ 500 | ≤ 5000 | ≤ 5000 | ≤ 5000
CC(C)Cn1c(N2CCN[C@@H](C)C2)nc2c(N3CCOCC3)nc(-c3cnc(N)nc3)nc21 [Example 51, 5-{9-Isobutyl-8-[(3S)-3-methylpiperazin-1-yl]-6-morpholin-4-yl-9H-purin-2-yl}pyrimidin-2-amine] | 10 to 20 nM | 10 to 30 | ≤ 5000 | ≤ 5000 | ≤ 5000
C[C@@H]1CN(c2nc3c(N4CCOCC4)nc(-c4cnc(N)nc4)nc3n2CC2CCOC2)C[C@H](C)N1 (stereo partly drawn) [Example 17, 5-[8-(cis-3,5-Dimethylpiperazin-1-yl)-6-morpholin-4-yl-9-(tetrahydrofuran-3-ylmethyl)-9H-purin-2-yl]pyrimidin-2-amine] | 20 to 50 nM | 100 to 500 | ≤ 5000 | ≤ 5000 | ≤ 5000
CN1CCN(c2nc3c(N4CCOCC4)nc(-c4cnc(N)nc4)nc3n2CC(F)(F)F)CC1 [Example 13, 5-[8-(4-Methylpiperazin-1-yl)-6-morpholin-4-yl-9-(2,2,2-trifluoroethyl)-9H-purin-2-yl]pyrimidin-2-amine] | < 10 nM | 10 to 30 | ≤ 5000 | ≤ 5000 | ≤ 5000
C[C@@H]1CN(c2nc3c(N4CCOCC4)nc(-c4cnc(N)nc4)nc3n2[C@H]2CCN(S(C)(=O)=O)C2)C[C@H](C)N1 [Example 26, 5-{8-(cis-3,5-Dimethylpiperazin-1-yl)-9-[(3S)-1-(methylsulfonyl)pyrrolidin-3-yl]-6-morpholin-4-yl-9H-purin-2-yl}pyrimidin-2-amine] | 20 to 50 nM | 100 to 500 | ≤ 5000 | ≤ 5000 | ≤ 5000
CC(C)Cn1c(N2C[C@H](C)NC[C@H]2C)nc2c(N3CCOCC3)nc(-c3cnc(N)nc3)nc21 (relative stereo) [Example 50, 5-[8-(trans-2,5-Dimethylpiperazin-1-yl)-9-isobutyl-6-morpholin-4-yl-9H-purin-2-yl]pyrimidin-2-amine] | 10 to 20 nM | 30 to 100 | ≤ 5000 | ≤ 5000 | ≤ 5000
CS(=O)(=O)N1CCN(c2nc3c(N4CCOCC4)nc(-c4cnc(N)nc4)nc3n2CC2CCOC2)CC1 (stereo not drawn) [Example 5, 5-{8-[4-(Methylsulfonyl)piperazin-1-yl]-6-morpholin-4′-yl-9-(tetrahydrofuran-3-ylmethyl)-9H-purin-2-yl}pyrimidin-2-amine] | 10 to 20 nM and 20 to 50 nM | 10 to 30 | ≤ 5000 | ≤ 5000 | ≤ 5000
CC(O)C(=O)N1[C@H](C)CN(c2nc3c(N4CCOCC4)nc(-c4cnc(N)nc4)nc3n2CC(F)(F)F)C[C@@H]1C (stereo partly drawn) [Example 124, 1-{4-[2-(2-Aminopyrimidin-5-yl)-6-morpholin-4-yl-9-(2,2,2-trifluoroethyl)-9H-purin-8-yl]-cis-2,6-dimethylpiperazin-1-yl}-1-oxopropan-2-ol] | 10 to 20 nM | < 10 | ≤ 5000 | ≤ 5000 | ≤ 5000
Cc1nc(N)ncc1-c1nc(N2CCOCC2)c2nc(N3CCC(CO)CC3)n(CC3CC3)c2n1 [Example 37, {1-[2-(2-Amino-4-methylpyrimidin-5-yl)-9-(cyclopropylmethyl)-6-morpholin-4-yl-9H-purin-8-yl]piperidin-4-yl}methanol] | 10 to 20 nM | 100 to 500 | ≤ 5000 | ≤ 5000 | ≤ 5000
NCC(=O)N1CCN(c2nc3c(N4CCOCC4)nc(-c4cnc(N)nc4)nc3n2CC2CC2)CC1 [Example 42, 5-{8-[4-(Aminoacetyl)piperazin-1-yl]-9-(cyclopropylmethyl)-6-morpholin-4-yl-9H-purin-2-yl}pyrimidin-2-amine] | < 10 nM | 30 to 100 | ≤ 5000 | ≤ 5000 | ≤ 5000
Nc1ncc(-c2nc(N3CCOCC3)c3nc(N4CCOCC4)n(CC4CCOC4)c3n2)cn1 (stereo not drawn) [Example 23, 5-[6,8-Dimorpholin-4-yl-9-(tetrahydrofuran-3-ylmethyl)-9H-purin-2-yl]pyrimidin-2-amine] | 20 to 50 nM | 30 to 100 | ≤ 5000 | ≤ 5000 | ≤ 5000
CC1(C)CN(c2nc3c(N4CCOCC4)nc(-c4cnc(N)nc4)nc3n2CC(F)(F)F)CCN1C(=O)CO [Example 123] | 10 to 20 nM | < 10 | ≤ 5000 | ≤ 5000 | ≤ 5000
Cc1nc(N)ncc1-c1nc(N2CCOCC2)c2nc(N3CCC(NS(C)(=O)=O)C3)n(CC3CC3)c2n1 (stereo not drawn) [Example 35, N-{1-[2-(2-Amino-4-methylpyrimidin-5-yl)-9-(cyclopropylmethyl)-6-morpholin-4-yl-9H-purin-8-yl]pyrrolidin-3-yl}methanesulfonamide] | 10 to 20 nM | ≥ 500 | ≤ 5000 | ≤ 5000 | ≤ 5000
